From PMC2716445 (Journal of Biological Inorganic Chemistry, 2009)
“Also recorded” adds a separate entry of the source. Like-named read-outs stand apart in the source and are kept apart here.

Experiments:
[1] = cited from earlier work
[2] = cited from earlier work; remark: listed apart in the source
[3] = In vitro stability in simulated gastric fluid; assay type: in vitro ADME; conditions: intact compound after 90 min at 37 °C, pH approximately 1.2, HPLC
[4] = Peroxidase activity with tetramethyl benzidine as substrate; conditions: 5 μM sample, 0.2 mM hydrogen peroxide, 0.225 mM TMB, 27 °C; ± SD of triplicates
PC12 cells [5] = assay: Cytotoxicity in PC12 cells; assay type: cell-based, rat; conditions: data not shown
[6] = Catalase activity, disappearance of hydrogen peroxide; conditions: initial hydrogen peroxide 100 μM; ± SD of triplicates
PC12 cells [7] = assay: Inhibition of STS-induced cell death in PC12 cells; assay type: cell-based, rat; conditions: STS 5 μM, 18–24 h, XTT viability
Octanol partitioning = assay type: physicochemical; conditions: octanol/aqueous; ± SD of triplicates
[8] = In vivo oral availability, plasma levels after intragastric gavage; set-up: species or system Sprague–Dawley rats; conditions: rat, mean ± SD; for Plasma concentration 30 min: dose per compound 0.23-2.7 mg kg^−1
[9] = SOD activity, xanthine/xanthine oxidase with NBT detection; assay type: biochemical; conditions: read-out: SOD IC50, 10 μM NBT, pH 7.8, 25 °C
[10] = tested on: capillary endothelial cells; assay: Cytotoxicity in endothelial cell culture model; assay type: cell-based; conditions: unpublished data
[11] = tested on: capillary endothelial cells; assay: Mitigation of ionizing radiation-induced apoptosis in endothelial cell culture; assay type: cell-based; conditions: endothelial cell culture model; unpublished data
serum albumin = serum albumin (Homo sapiens, UniProt P02768); assay: In vitro binding to serum albumin; conditions: data not shown
[12] = tested on: capillary endothelial cells; conditions: cited from earlier work
[13] = tested on: capillary endothelial cells; conditions: endothelial cell culture model; cited from earlier work
[14] = EUK-425 plasma levels after PO versus IV administration; assay type: in vivo, Sprague–Dawley rats; conditions: rats, 5 mg kg^−1 PO, 1 mg kg^−1 IV

Sequence of serum albumin (P02768 25-609 limits assumed): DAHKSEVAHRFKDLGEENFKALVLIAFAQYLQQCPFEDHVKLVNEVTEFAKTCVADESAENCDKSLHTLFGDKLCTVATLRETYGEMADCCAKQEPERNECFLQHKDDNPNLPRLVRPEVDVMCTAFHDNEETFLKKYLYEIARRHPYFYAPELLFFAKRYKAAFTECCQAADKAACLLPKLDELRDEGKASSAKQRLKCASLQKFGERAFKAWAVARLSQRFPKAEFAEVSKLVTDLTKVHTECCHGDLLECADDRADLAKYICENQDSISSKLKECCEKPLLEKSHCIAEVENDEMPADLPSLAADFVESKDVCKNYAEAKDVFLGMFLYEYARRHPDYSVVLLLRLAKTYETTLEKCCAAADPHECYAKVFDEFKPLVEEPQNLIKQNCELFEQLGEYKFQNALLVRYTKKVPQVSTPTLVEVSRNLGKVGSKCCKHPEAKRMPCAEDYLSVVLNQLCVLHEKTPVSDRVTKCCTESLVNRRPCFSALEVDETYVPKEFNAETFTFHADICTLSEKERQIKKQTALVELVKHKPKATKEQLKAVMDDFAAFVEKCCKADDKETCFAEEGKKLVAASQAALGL

Molecule	SGF stability [3] [%]	POD [4] [μM TMB min^−1]	Cytotoxicity in PC12 cells (PC12 cells [5])	CAT [6] [μM H2O2 min^−1]	Protection of PC12 cells against STS-induced cell death (PC12 cells [7])	Log10 P (Octanol partitioning)	P (octanol partitioning coefficient) (Octanol partitioning)	Plasma concentration 30 min [8] [ng/mL]	Plasma concentration 60 min [8] [ng/mL]	Plasma concentration 120 min [8] [ng/mL]	Plasma concentration 240 min [8] [ng/mL]	Plasma concentration 360 min [8] [ng/mL]	IC50 [9] [µM]	Binding to serum albumin (serum albumin)	further results
COC(=O)c1c2nc(c(C(F)(F)F)c3ccc([n-]3)c(C(=O)OC)c3nc(c(C(F)(F)F)c4ccc1[n-]4)C=C3)C=C2.[Cl-].[Mn+3] [AEOL11207, 5,15-bis(methoxycarbonyl)-10,20-bistrifluoromethylporphyrinato manganese(III) chloride, reference compound]															Presence in brain tissue ([1]; mice, after subcutaneous or oral administration): present in the brain tissue; SOD activity, fold less active than Cu/Zn SOD ([2]; normalized to Cu/Zn SOD, assay methods differed): 123 fold
manganese(III) 5,15-dipropylporphine chloride [EUK-453]	98	0.56 ± 0.03	cytotoxic; also recorded: most cytotoxic	0.50 ± 0.11	not significantly protective; also recorded: no cytoprotective activity	0.619 ± 0.017	4.16 ± 0.16	8.8 ± 5.9	8.1 ± 5.5	7.7 ± 6.1	7.7 ± 6.0	4.6 ± 4.2	5.95		
manganese(III) 5,15-di-3,4-dimethoxyphenylporphine acetate [EUK-450]	98	0.66 ± 0.10	cytotoxic; also recorded: most cytotoxic	0.58 ± 0.08	not significantly protective; also recorded: no cytoprotective activity	0.650 ± 0.010	4.46 ± 0.11	11 ± 10	15 ± 9	48 ± 46	53 ± 53	47 ± 38	6.39		
manganese(III) 5,15-ditetrahydropyranyoporphine chloride [EUK-451]	100	0.59 ± 0.023		0.64 ± 0.25	protect PC12 cells against STS-induced cell death; also recorded: most protective	−0.660 ± 0.011	0.22 ± 0.01	44 ± 38	61 ± 54	66 ± 62	107 ± 102	86 ± 70	3.36		Cytotoxicity in endothelial cell culture model [10]: significantly lower cytotoxicity than the other EUK-400 compounds; Mitigation of apoptosis induced by ionizing radiation [11]: potent mitigator
C1=Cc2nc1cc1ccc([n-]1)c(-c1ccccc1)c1nc(cc3ccc([n-]3)c2-c2ccccc2)C=C1.CC(=O)[O-].[Mn+3] [EUK-423, manganese(III) 5,15-diphenylporphine acetate]	91	0.61 ± 0.05		0.45 ± 0.18	protect PC12 cells against STS-induced cell death; also recorded: most protective	0.907 ± 0.002	8.07 ± 0.10	25 ± 7	53 ± 19	48 ± 23	110 ± 61	118 ± 17		bind to serum albumin	Cytotoxicity in endothelial cell culture model [12]: intermediate toxicity; Mitigation of apoptosis induced by ionizing radiation [13]: mitigated apoptosis induced by ionizing radiation
manganese(III) 5,15-dicyclohexylporphine chloride [EUK-452]	98	0.63 ± 0.05	cytotoxic; also recorded: most cytotoxic	0.54 ± 0.06	not significantly protective; also recorded: no cytoprotective activity	1.973 ± 0.008	94.0 ± 1.7	57 ± 50	52 ± 42	75 ± 63	75 ± 76	71 ± 63	11.6		
O=C(O)c1ccc(-c2c3nc(c(-c4ccc(C(=O)O)cc4)c4ccc([n-]4)c(-c4ccc(C(=O)O)cc4)c4nc(c(-c5ccc(C(=O)O)cc5)c5ccc2[n-]5)C=C4)C=C3)cc1.[Mn+3] [MnTBAP, manganese(III) tetrakis(4-benzoic acid) porphyrin]															SOD activity ([2]; earlier reported activity due to Mn aggregate impurities): no SOD activity
manganese(III) 5,10,15,20-tetraethylporphine acetate [EUK-425]	97	0.58 ± 0.03	cytotoxic; also recorded: most cytotoxic	0.57 ± 0.15	not significantly protective; also recorded: no cytoprotective activity	0.932 ± 0.006	8.56 ± 0.35	52 ± 19	48 ± 21	78 ± 47	96 ± 20		12.5	bind to serum albumin	Detection in plasma by LC-MS/MS after oral gavage and intravenous injection [14]: detected in plasma
C1=Cc2nc1cc1ccc([n-]1)c(C1CC1)c1nc(cc3ccc([n-]3)c2C2CC2)C=C1.CC(=O)[O-].[Mn+3] [EUK-418, manganese(III) 5,15-dicyclopropylporphine acetate]	92	0.63 ± 0.08		0.47 ± 0.10	protect PC12 cells against STS-induced cell death; also recorded: relatively poor protector	0.548 ± 0.009	3.53 ± 0.14	128 ± 83	250 ± 147	245 ± 145	299 ± 224	259 ± 166	1.73	bind to serum albumin	Cytotoxicity in endothelial cell culture model [12]: greatest cytotoxicity; Oral bioavailability in mice [1]: orally bioavailable in mice; Tissue distribution after oral administration ([1]; mice, selected tissues): kidney > liver > lung ≫ brain; Mitigation of apoptosis induced by ionizing radiation [13]: mitigated apoptosis induced by ionizing radiation
